Test results as given in PubChem BioAssay (NCI).
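Exposure lasted 48 hours, with cells grown in 96-well plates and compounds tested at five concentrations. TGI: total growth inhibition.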

How the values were obtained:
Assay in all cases: inhibition of tumour cell growth, NCI panel, 48 h
KM12 colon = system: KM12 colon
OVCAR-5 ovarian = system: OVCAR-5 ovarian
OVCAR-8 ovarian = system: OVCAR-8 ovarian
SF-268 CNS = system: SF-268 CNS
SF-539 CNS = system: SF-539 CNS
SK-MEL-5 melanoma = system: SK-MEL-5 melanoma
TK-10 renal = system: TK-10 renal
UACC-62 melanoma = system: UACC-62 melanoma
MALME-3M melanoma = system: MALME-3M melanoma

Compound	TGI (KM12 colon)	TGI (OVCAR-5 ovarian)	TGI (OVCAR-8 ovarian)	TGI (SF-268 CNS)	TGI (SF-539 CNS)	TGI (SK-MEL-5 melanoma)	TGI (TK-10 renal)	TGI (UACC-62 melanoma)	TGI (MALME-3M melanoma)
Cc1ccc(/C=C(\C#N)c2ccccc2)cc1	> 100 µM	> 100 µM	> 100 µM	> 100 µM	> 100 µM	> 100 µM	> 100 µM	> 100 µM	
COCOCC[C@@H]1CC=CC(NC(=O)OCc2ccccc2)C1/C=C/C(=O)CCC1OCCO1 (some centres undefined)	45.4 µM	> 100 µM	39.3 µM	99 µM	> 63 µM	> 100 µM	> 100 µM	> 75.4 µM	> 100 µM
COC(=O)C(C(=O)C(=O)Nc1ccc(OC)cc1[N+](=O)[O-])c1nc2cc(C)c(C)cc2[nH]c1=O (centres undefined)			> 100 µM	> 100 µM	> 100 µM	> 100 µM	> 100 µM	> 100 µM	> 100 µM
Cc1nc(Nc2ccccc2)sc1C(=O)CC(=O)C(=O)NC12CC3CC(CC(C3)C1)C2	> 100 µM	> 100 µM	> 100 µM	> 100 µM	> 100 µM	> 100 µM	> 100 µM	> 100 µM	> 100 µM
NNC(=O)N/N=C1\C(=O)N(c2nccs2)C(=O)C(=O)C1c1nc2ccccc2s1 (centres undefined)	> 100 µM	> 100 µM	> 100 µM	> 100 µM	> 100 µM		> 100 µM	> 100 µM	> 100 µM
CCOC(=O)NC(=O)c1cn(CCN2CCNCC2)c(=O)[nH]c1=O	> 100 µM	> 100 µM	> 100 µM	> 100 µM	> 100 µM	> 100 µM	> 100 µM	> 100 µM	
OC1CCC[C@@H]1Sc1ccccc1 (some centres undefined)	> 100 µM		> 100 µM	> 100 µM	> 100 µM	> 100 µM	> 100 µM	> 100 µM	
COC(=O)C(=O)C(C(=O)C(=O)Nc1ccc(C)cc1)c1nc2ccc(C(=O)c3ccccc3)cc2[nH]c1=O (centres undefined)	> 100 µM	> 100 µM	> 100 µM	> 100 µM	> 100 µM	> 100 µM	> 100 µM	> 100 µM	> 100 µM
CC1=C2[C@H](c3ccccc3)C3C=CC2(c2ccccc23)N(C(=O)C(c2ccccc2)c2ccccc2)C1=O (some centres undefined)	> 100 µM	> 100 µM	> 100 µM	> 100 µM	> 100 µM	> 100 µM	> 100 µM	> 100 µM	> 100 µM
